From patent US20170067871A1, “HIGH-THROUGHPUT CELLULAR ANALYSIS USING MICROBUBBLE ARRAYS” (University of Rochester, priority 2015, published 2017)
Entries after “also recorded” stand apart in the source; their conditions may differ.

Experiments:
[1] = system: cutaneous squamous cell carcinoma cell colonies (SCC cells); assay: Drug resistance screen of squamous carcinoma cell colonies in microbubble well arrays, CalceinAM/PI live/dead staining; type: cell-based
Experimental: To enrich for the sphere cells, established colonies were cultured in the presence of a chemotherapeutic agent (e.g. Cisplatin). Traditional chemotherapeutic agents work by killing rapidly dividing cells, one of the main properties of most cancer cells. This means that chemotherapy also harms cells that divide rapidly under normal circumstances. Most chemotherapeutic drugs work by impairing mitosis (cell division), effectively targeting fast-dividing cells and inducing apoptosis. After Day 7 the cell culture media was changed and 10 uM or 10 nM cisplatin and incubated for 2 to 7 days, respectively. After which the chips were transferred into fresh media prior to a live/dead staining with CalceinAM/PI followed by stem cell marker analysis.

[2] = system: multi-cellular tumor spheroids; conditions: microbubble well array based perfusion system; cited from earlier work

Compound | surviving sphere cells as share of initial cells seeded in the MB well array ([1]; 10 μM Cisplatin for 48 hr, CalceinAM (live) / propidium iodide (dead) staining, colonies from one or two cells per MB well) | drug resistance of spheroid versus spread cell morphology (live/dead staining) ([1]; established colonies, 10 uM or 10 nM cisplatin for 2 to 7 days, respectively, CalceinAM/PI) | resistance of spheroid cells versus adherent cells to treatment [2]
N.N.[Cl][Pt][Cl] [Cisplatin] | ~5% | the spheroid cells have greater resistance in response to chemo drug than the spread cell; also recorded: sphere cells exhibit drug resistance | 
COc1cccc2c1C(=O)c1c(O)c3c(c(O)c1C2=O)C[C@@](O)(C(=O)CO)C[C@@H]3O[C@H]1C[C@H](N)[C@H](O)[C@H](C)O1 [doxorubicin] |  |  | spheroid cells are more resistant to doxorubicin treatment than adherent cells
